Measurements taken from patent publication US20230312550A1, “N-(2-(4-CYANOTHIAZOLIDIN-3-YL)-2-OXOETHYL)-QUINOLINE-4-CARBOXAMIDES” (AstraZeneca AB, priority 2020, published 2023).
Converted amounts (≈) assume the structure as drawn.

How the values were obtained:
[1] = Metabolic stability in human liver microsomes (HLM); settings: human, HLM CLint, n = 1 or average of n = 2-3
Procedure: Metabolic stability in HLM was measured as described in J Comput Aided Mol Des 2015, 29, 795.

[2] = biological target: human Fibroblast activation protein alpha (hFAP) (Homo sapiens (Human), UniProt Q12884); test: hFAP inhibition assay (tight binders); type: biochemical; settings: Ala-Pro-AMC 20 μM, n = 1 or geometric mean n = 2-6; note: hFAP 2.4 pM
Procedure: The plates were read on a PHERAstar® reader with excitation 340 nm and emission 460 nm. Data were analyzed in Genedata Screener®. IC50 values were determined by plotting % inhibition versus log compound concentration and using a one site dose response model.

[3] = biological target: hFAP (M39-A757) (Homo sapiens (Human), UniProt Q12884); test: hFAP binding assay (surface plasmon resonance); settings: SPR, 20° C.; for hFAP Binding assay k(off) / hFAP Binding assay k(on): single cycle kinetics; for Kd: n = 1 or geometric mean n = 2-4
[4] = biological target: Prolyl endopeptidase, Prolyl Oligopeptidase (hPREP) (Homo sapiens (Human), UniProt P48147); test: hPrep inhibition assay; type: biochemical; settings: hPREP 0.6 nM, Z-Gly-Pro-amino-methylcoumarin 50 μM; read-out: PREP IC50
Procedure, shortened: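 Recombinant human PREP at 0.6 nM final with Z-Gly-Pro-AMC substrate at 50 μM final in Tris-HCl pH 7.5, NaCl, Triton X-100, glutathione; 15 min rt preincubation then 20 min rt reaction in dark. AMC fluorescence (ex 340/em 460 nm); IC50 from one-site dose-response fit of % inhibition.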

[5] = Kinetic solubility; settings: kinetic from dmso stock, Solubility, kinetic solubility; n = 1 or average of n = 2-3
Procedure: Kinetic solubility was measured as described in Comput Aided Mol Des 2015, 29, 795.

[6] = Metabolic stability in rat hepatocytes (rHep); settings: n = 1 or geometric mean of n = 2-3
[7] = Caco-2 cell permeability; settings: human
Procedure: Caco-2 cell permeability was measured as described in Mol Pharm 2017, 14, 1601.

Chain of human Fibroblast activation protein alpha (hFAP) (Q12884 38-760): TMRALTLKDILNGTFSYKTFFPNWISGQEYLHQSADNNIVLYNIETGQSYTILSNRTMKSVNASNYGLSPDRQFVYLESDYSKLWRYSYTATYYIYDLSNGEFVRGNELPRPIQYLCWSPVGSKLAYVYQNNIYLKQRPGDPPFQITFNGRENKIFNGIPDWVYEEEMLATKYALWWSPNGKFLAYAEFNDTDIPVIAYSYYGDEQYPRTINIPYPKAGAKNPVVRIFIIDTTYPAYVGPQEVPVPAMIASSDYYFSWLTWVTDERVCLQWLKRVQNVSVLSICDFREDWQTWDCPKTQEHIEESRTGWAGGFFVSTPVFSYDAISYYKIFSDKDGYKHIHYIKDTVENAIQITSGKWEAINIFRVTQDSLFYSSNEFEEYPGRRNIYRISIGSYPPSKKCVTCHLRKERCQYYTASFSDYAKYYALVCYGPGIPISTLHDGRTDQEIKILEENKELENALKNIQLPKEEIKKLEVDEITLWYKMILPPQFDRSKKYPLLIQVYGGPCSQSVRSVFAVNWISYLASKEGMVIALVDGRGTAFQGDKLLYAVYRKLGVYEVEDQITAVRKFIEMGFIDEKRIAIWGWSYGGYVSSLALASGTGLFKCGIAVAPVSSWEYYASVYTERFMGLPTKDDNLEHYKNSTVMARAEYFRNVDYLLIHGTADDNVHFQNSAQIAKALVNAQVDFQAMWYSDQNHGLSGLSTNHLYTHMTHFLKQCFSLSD
Chain of hFAP (M39-A757) (Q12884 39-757): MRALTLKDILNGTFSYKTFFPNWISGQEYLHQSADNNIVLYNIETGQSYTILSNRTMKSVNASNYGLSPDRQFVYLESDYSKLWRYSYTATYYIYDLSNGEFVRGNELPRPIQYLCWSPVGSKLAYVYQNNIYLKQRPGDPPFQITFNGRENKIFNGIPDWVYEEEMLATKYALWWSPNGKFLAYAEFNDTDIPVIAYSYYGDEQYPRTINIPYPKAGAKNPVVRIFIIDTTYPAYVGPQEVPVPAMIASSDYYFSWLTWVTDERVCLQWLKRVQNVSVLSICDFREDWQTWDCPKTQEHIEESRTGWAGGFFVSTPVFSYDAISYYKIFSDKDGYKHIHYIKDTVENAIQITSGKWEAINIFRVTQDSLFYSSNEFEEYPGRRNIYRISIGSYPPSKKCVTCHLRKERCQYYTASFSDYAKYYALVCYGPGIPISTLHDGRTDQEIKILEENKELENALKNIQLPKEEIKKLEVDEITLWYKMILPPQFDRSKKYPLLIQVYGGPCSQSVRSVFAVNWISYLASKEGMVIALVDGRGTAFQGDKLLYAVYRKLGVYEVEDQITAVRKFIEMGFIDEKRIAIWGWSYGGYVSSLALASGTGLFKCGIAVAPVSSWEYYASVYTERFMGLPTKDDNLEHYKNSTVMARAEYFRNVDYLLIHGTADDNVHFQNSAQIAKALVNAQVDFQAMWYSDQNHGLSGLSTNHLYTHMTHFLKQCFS
Chain of Prolyl endopeptidase, Prolyl Oligopeptidase (hPREP) (P48147 whole entry): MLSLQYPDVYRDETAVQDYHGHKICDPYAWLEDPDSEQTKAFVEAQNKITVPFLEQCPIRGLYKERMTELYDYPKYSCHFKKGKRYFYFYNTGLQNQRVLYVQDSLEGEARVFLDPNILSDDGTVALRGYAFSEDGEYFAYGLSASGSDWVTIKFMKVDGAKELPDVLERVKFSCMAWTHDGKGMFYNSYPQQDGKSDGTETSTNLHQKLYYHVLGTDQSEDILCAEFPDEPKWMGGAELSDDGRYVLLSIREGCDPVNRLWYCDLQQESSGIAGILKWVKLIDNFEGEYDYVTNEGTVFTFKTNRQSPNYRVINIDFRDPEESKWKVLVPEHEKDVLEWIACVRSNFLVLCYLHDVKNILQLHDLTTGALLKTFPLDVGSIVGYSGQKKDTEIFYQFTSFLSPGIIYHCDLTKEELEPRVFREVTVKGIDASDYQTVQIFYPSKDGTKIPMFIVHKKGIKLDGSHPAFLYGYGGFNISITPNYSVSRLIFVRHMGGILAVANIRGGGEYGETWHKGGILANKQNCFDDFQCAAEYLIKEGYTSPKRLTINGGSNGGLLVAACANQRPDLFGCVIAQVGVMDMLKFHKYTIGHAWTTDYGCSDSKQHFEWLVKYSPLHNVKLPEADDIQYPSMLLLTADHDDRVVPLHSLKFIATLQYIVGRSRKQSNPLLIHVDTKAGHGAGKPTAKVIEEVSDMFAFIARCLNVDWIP

SMILES	microsomal CLint [1]	IC50 [2]	hFAP Binding assay k(off) [3]	hFAP Binding assay k(on) [3]	Kd [3]	IC50 [4]	solubility [5]	rHep CLint [6]	Papp A→B [7]	Papp B→A [7]	efflux ratio [7]	Papp [7]
C[C@]1(F)CCN(c2ccc3nccc(C(=O)NCC(=O)N4CSC[C@H]4C#N)c3c2)C1 (mixture of isomers) [Example 198, N-(2-((R)-4-Cyanothiazolidin-3-yl)-2-oxoethyl)-6-((RS)-3-fluoro-3-methylpyrrolidin-1-yl)quinoline-4-carboxamide]	20 µL/min/mg	0.056 nM	0.00011 s⁻¹	2900000 M⁻¹ s⁻¹	0.038 nM	410 nM	38 µM	22 μL/min/1E6	3.4 ×10⁻⁶ cm/s	36 ×10⁻⁶ cm/s	11	
N#C[C@@H]1CSCN1C(=O)CNC(=O)c1ccnc2ccc(N3C[C@H](O)C(F)(F)C3)cc12 (mixture of isomers) [Example 224, N-(2-((R)-4-Cyanothiazolidin-3-yl)-2-oxoethyl)-6-((RS)-3,3-difluoro-4-hydroxypyrrolidin-1-yl)quinoline-4-carboxamide]	< 3 µL/min/mg	0.073 nM	0.000068 s⁻¹	3000000 M⁻¹ s⁻¹	0.023 nM	670 nM	50 µM	<1 μL/min/1E6				1.2 ×10⁻⁶ cm/s
C[C@H]1CCN(c2ccc3nccc(C(=O)NCC(=O)N4CSC[C@H]4C#N)c3c2)C1=O (single isomer, unassigned) [Example 201, N-(2-((R)-4-Cyanothiazolidin-3-yl)-2-oxoethyl)-6-((R*)-3-methyl-2-oxopyrrolidin-1-yl)quinoline-4-carboxamide]	< 3 µL/min/mg	< 0.025 nM	0.00010 s⁻¹	1800000 M⁻¹ s⁻¹	0.059 nM	610 nM	90 µM (≈ 38.1 µg/mL)	<1 μL/min/1E6				4.8 ×10⁻⁶ cm/s
C[C@@H]1CCN(c2ccc3nccc(C(=O)NCC(=O)N4CSC[C@H]4C#N)c3c2)C1=O (single isomer, unassigned) [Example 202, N-(2-((R)-4-Cyanothiazolidin-3-yl)-2-oxoethyl)-6-((R*)-3-methyl-2-oxopyrrolidin-1-yl)quinoline-4-carboxamide]	7.7 µL/min/mg	0.044 nM	0.000070 s⁻¹	1600000 M⁻¹ s⁻¹	0.043 nM	550 nM	140 µM (≈ 59.3 µg/mL)	<1 μL/min/1E6				5.2 ×10⁻⁶ cm/s
N#C[C@@H]1CSCN1C(=O)CNC(=O)c1ccnc2ccc(N3CCOC(F)(F)C3)cc12 [Example 4, (R)—N-(2-(4-Cyanothiazolidin-3-yl)-2-oxoethyl)-6-(2,2-difluoromorpholino)-quinoline-4-carboxamide]	50 µL/min/mg	0.058 nM	0.000094 s⁻¹	1200000 M⁻¹ s⁻¹	0.079 nM	1100 nM	55 µM (≈ 24.6 µg/mL)	14 μL/min/1E6	1.6 ×10⁻⁶ cm/s	28 ×10⁻⁶ cm/s	18	
N#C[C@@H]1CSCN1C(=O)CNC(=O)c1ccnc2ccc(N3CC(F)(F)OC(F)(F)C3)cc12 [Example 5, (R)—N-(2-(4-Cyanothiazolidin-3-yl)-2-oxoethyl)-6-(2,2,6,6-tetrafluoromorpholino)quinoline-4-carboxamide]	93 µL/min/mg	0.06 nM			0.049 nM	220 nM	11 µM (≈ 5.32 µg/mL)	32 μL/min/1E6	1.9 ×10⁻⁶ cm/s	32 ×10⁻⁶ cm/s	17	
C[C@@H]1CN(c2ccc3nccc(C(=O)NCC(=O)N4CSC[C@H]4C#N)c3c2)C[C@H](C)[C@@H]1O [Example 7, N-(2-((R)-4-Cyanothiazolidin-3-yl)-2-oxoethyl)-6-((3S,4S,5R)-4-hydroxy-3,5-dimethylpiperidin-1-yl)quinoline-4-carboxamide]	31 µL/min/mg	0.16 nM	0.000075 s⁻¹	740000 M⁻¹ s⁻¹	0.1 nM	510 nM	> 1000 µM	2.6 μL/min/1E6	0.34 ×10⁻⁶ cm/s	20 ×10⁻⁶ cm/s	59	
CC1(C)CCN(c2ccc3nccc(C(=O)NCC(=O)N4CSC[C@H]4C#N)c3c2)C1=O [Example 12, (R)—N-(2-(4-Cyanothiazolidin-3-yl)-2-oxoethyl)-6-(3,3-dimethyl-2-oxopyrrolidin-1-yl)quinoline-4-carboxamide]	6.4 µL/min/mg	0.065 nM	0.000064 s⁻¹	1900000 M⁻¹ s⁻¹	0.038 nM	510 nM	830 µM (≈ 363 µg/mL)	<1 μL/min/1E6	0.29 ×10⁻⁶ cm/s	19 ×10⁻⁶ cm/s	65	
N#C[C@@H]1CSCN1C(=O)CNC(=O)c1ccnc2ccc(N3CCCCC3=O)cc12 [Example 14, (R)—N-(2-(4-Cyanothiazolidin-3-yl)-2-oxoethyl)-6-(2-oxopiperidin-1-yl)-quinoline-4-carboxamide]	< 3 µL/min/mg	0.08 nM	0.000064 s⁻¹	1300000 M⁻¹ s⁻¹	0.05 nM	1200 nM	830 µM (≈ 352 µg/mL)	<1 μL/min/1E6	0.15 ×10⁻⁶ cm/s	2.4 ×10⁻⁶ cm/s	16	
CC1(C)CCCN(c2ccc3nccc(C(=O)NCC(=O)N4CSC[C@H]4C#N)c3c2)C1=O [Example 15, (R)—N-(2-(4-Cyanothiazolidin-3-yl)-2-oxoethyl)-6-(3,3-dimethyl-2-oxopiperidin-1-yl)quinoline-4-carboxamide]	43 µL/min/mg	0.12 nM	0.000046 s⁻¹	490000 M⁻¹ s⁻¹	0.11 nM	2100 nM	890 µM (≈ 402 µg/mL)	11 μL/min/1E6	0.3 ×10⁻⁶ cm/s	13 ×10⁻⁶ cm/s	45	
N#C[C@@H]1CSCN1C(=O)CNC(=O)c1ccnc2ccc(N3C[C@@H]4C[C@H]3CO4)cc12 [Example 75, 6-((1S,4S)-2-Oxa-5-azabicyclo[2.2.1]heptan-5-yl)-N-(2-((R)-4-cyano-thiazolidin-3-yl)-2-oxoethyl)quinoline-4-carboxamide]	9 µL/min/mg	0.05 nM	0.000024 s⁻¹	2300000 M⁻¹ s⁻¹	0.0063 nM	490 nM	930 µM (≈ 394 µg/mL)	6.7 μL/min/1E6	0.77 ×10⁻⁶ cm/s	17 ×10⁻⁶ cm/s	21	
N#C[C@@H]1CSCN1C(=O)CNC(=O)c1ccnc2ccc(N3C[C@H]4C[C@@H]3CO4)cc12 [Example 76, 6-((1R,4R)-2-Oxa-5-azabicyclo[2.2.1]heptan-5-yl)-N-(2-((R)-4-cyano-thiazolidin-3-yl)-2-oxoethyl)quinoline-4-carboxamide]	4.2 µL/min/mg	0.08 nM	0.000052 s⁻¹	1000000 M⁻¹ s⁻¹	0.051 nM	510 nM	> 1000 µM	3.5 μL/min/1E6	0.64 ×10⁻⁶ cm/s	20 ×10⁻⁶ cm/s	31	
N#C[C@@H]1CSCN1C(=O)CNC(=O)c1ccnc2ccc(N3CC4CCC(C3)O4)cc12 [Example 79, 6-(8-Oxa-3-azabicyclo[3.2.1]octan-3-yl)-N-(2-((R)-4-cyanothiazolidin-3-yl)-2-oxoethyl)quinoline-4-carboxamide]	21 µL/min/mg	0.043 nM	0.00012 s⁻¹	16000000 M⁻¹ s⁻¹	0.018 nM	630 nM	610 µM (≈ 267 µg/mL)	6.2 μL/min/1E6	1.1 ×10⁻⁶ cm/s	33 ×10⁻⁶ cm/s	29	
C[C@@]1(O)CCN(c2ccc3nccc(C(=O)NCC(=O)N4CSC[C@H]4C#N)c3c2)C1 [Example 167, N-(2-((R)-4-Cyanothiazolidin-3-yl)-2-oxoethyl)-6-((R)-3-hydroxy-3-methylpyrrolidin-1-yl)quinoline-4-carboxamide]	< 3 µL/min/mg	0.091 nM				1000 nM	240 µM (≈ 102 µg/mL)	<1 μL/min/1E6	0.13 ×10⁻⁶ cm/s	9.5 ×10⁻⁶ cm/s	74	
N#C[C@@H]1CSCN1C(=O)CNC(=O)c1ccnc2ccc(N3CCC(=O)CC3)cc12 [Example 230, (R)—N-(2-(4-cyanothiazolidin-3-yl)-2-oxoethyl)-6-(4-oxopiperidin-1-yl)quinoline-4-carboxamide]	< 3 µL/min/mg	0.078 nM				600 nM	> 1000 µM	2.8 μL/min/1E6	34 ×10⁻⁶ cm/s	17 ×10⁻⁶ cm/s		2 ×10⁻⁶ cm/s
